The source of these data is patent publication US6884577B2, “Methods for screening compounds for estrogenic activity” (The Regents of the University of California, priority 1993, dated 2005).

Assay [1] has as its system human ER at the AP-1 site of the collagenase promoter (coll73). Kind of assay: Coll73-LUC luciferase reporter (collagenase promoter with AP-1 site) in cells transfected with human ER expression vector HEO. The format is cell-based. The settings on record: relative to no ER. The procedure: All reporter genes described below have been modified by digestion with EcoR I and Ndel to remove a AP-I site in the backbone of pUG. […] Coll73-LUC was constructed by cloning a BamHI/Pvull fragment, that spanned the luciferase transcription unit, from pMG3 into coll73, which had been digested with BamHI and SmaI to remove the CAT transcription unit.
Cells were maintained and transfected as previously described in Webb et al., supra. […] F9 cells were seeded at 30% confluence upon 1.5 cm dishes and transfected overnight by calcium phosphate coprecipitation with 5 μg reporter gene, 1 μg actin β-HCG, and 1 μg of HEO, 300 ng each of c-jun and c-fos expression vectors. The cells were glycerol shocked and refed in growth medium containing hormone or ethanolic vehicle.
CAT assays were carried out as described in Webb et al., except that the cells were harvested one to two days after transfection instead of three. CAT activities were defined as the increase in cpm per hour at room temperature (corrected for background) per 100 μl of cell extract, normalized to production of 100 standard units of βHCG, from a co-transfected reporter gene, actin-HCG. […] Light units were defined as the luciferase activity per 100 μl of cell extract per 100 standard units of βHCG. Relative luciferase activities were calculated with respect to the results that were obtained in the absence of ER and hormone, which was set at 1 unit. For the data presented in Table I triplicate points were determined.
In each case, the cells were transfected with different amounts of the human ER expression vector HEO to determine the optimal response.
(In general: Reporter assays use an easily measured gene product as a stand-in for the process of interest.)

Assay [2] deals with ER at the AP1 site of the human collagenase promoter, ERC1 cells. Kind of assay: Collagenase promoter-CAT reporters (Δcoll73, Δcoll60) in ERC1 cells. The format is cell-based. The procedure: FIGS. 1A and 1B show estrogen stimulation mediated by an AP1 site in ERC1 cells (FIG. 1A) and F9 cells (FIG. 1B). Typical results of CAT assays, normalized for transfection efficiency, following a single transfection are shown opposite. Each point is the mean value of triplicate assays, with standard errors. CAT activities from cells maintained in the absence of hormone are shown as white bars, those in the presence of a saturating concentration (100 nM) of estradiol as black bars.
CAT assays were carried out as described in Webb et al., except that the cells were harvested one to two days after transfection instead of three. CAT activities were defined as the increase in cpm per hour at room temperature (corrected for background) per 100 μl of cell extract, normalized to production of 100 standard units of βHCG, from a co-transfected reporter gene, actin-HCG. Luciferase assays were performed as described by Brasier et al. Methods Enzymol 216:386-97 (1992)) on similar extracts that were used for CAT assays. Light units were defined as the luciferase activity per 100 μl of cell extract per 100 standard units of βHCG. Relative luciferase activities were calculated with respect to the results that were obtained in the absence of ER and hormone, which was set at 1 unit. For the data presented in Table I triplicate points were determined. Standard deviations were less than 20%. […]

Assay [3] deals with ER at classical ERE. Briefly: Reporter genes containing classical EREs (ERE-coll60, ERE-tk) in cells with ER. It is filed as cell-based, human. As to the method:
FIGS. 2A-2C show antiestrogen stimulation of expression in an intact AP-1 Site, but not at classical EREs. […] Representations, at left, show the human collagenase promoter (shaded) and the consensus AP-1 site. CAT activities were from cells maintained in the absence of hormone or saturating concentrations of ICI 164,384 (ICI, 1 μM), tamoxifen (5 μM) or estradiol ([…]). CAT activity is normalized to a transfection control with the actin promoter driving expression of βHCG. Single representative experiments are shown, error bars represent standard deviation of triplicate hormone treatments.
All reporter genes described below have been modified by digestion with EcoR I and Ndel to remove a AP-I site in the backbone of pUG. Thus, Coll73 and Coll60 are formerly_Coll73 and_Coll60 (Lopez et al. Mol. Cell. Biol. 13:3042-930 (1993)). Coll73-LUC was constructed by cloning a BamHI/Pvull fragment, that spanned the luciferase transcription unit, from pMG3 into coll73, which had been digested with BamHI and SmaI to remove the CAT transcription unit. EREcoll60 and EREcoll73 was prepared by ligation of a consensus ERE ([…], SEQ ID NO:3), into the HindIII site upstream of coll60 and coll73, respectively. All other reporter genes have been previously described (Webb et al. Mol. Endocrinol. 6:157-16725 (1992): and Lopez et al., supra).
Cells were maintained and transfected as previously described in Webb et al., supra. Hormones were added two hours after plating in the following concentrations, estradiol 100 nM, ICI 164,384 1 μM, tamoxifen 5 μM, to ensure saturation of the response. F9 cells were seeded at 30% confluence upon 1.5 cm dishes and transfected overnight by calcium phosphate coprecipitation with 5 μg reporter gene, 1 μg actin β-HCG, and 1 μg of HEO, 300 ng each of c-jun and c-fos expression vectors. The cells were glycerol shocked and refed in growth medium containing hormone or ethanolic vehicle. In transient transfections, optimal amounts of HEO were employed and were as follows: HeLa (5 μg); NIH3T3 (1 μg); HepG2 (1 μg); SHM (300 ng); SY5Y (300 ng); CEF (100 ng); CV-1 (3 μg); MDA453 (3 μg); CHO (100 ng) and F9 (1 μg).
CAT assays were carried out as described in Webb et al., except that the cells were harvested one to two days after transfection instead of three. CAT activities were defined as the increase in cpm per hour at room temperature (corrected for background) per 100 μl of cell extract, normalized to production of 100 standard units of βHCG, from a co-transfected reporter gene, actin-HCG. Luciferase assays were performed as described by Brasier et al. Methods Enzymol 216:386-97 (1992)) on similar extracts that were used for CAT assays. Light units were defined as the luciferase activity per 100 μl of cell extract per 100 standard units of βHCG. Relative luciferase activities were calculated with respect to the results that were obtained in the absence of ER and hormone, which was set at 1 unit. For the data presented in Table I triplicate points were determined. Standard deviations were less than 20%.
The activity of antiestrogens in the AP-1 pathway was also compared with their activity in the classical pathway. […] A promoter with both an ERE and an AP-1 site (ERE-coll73 FIG. 2C) gave a large estrogen response, but retained some response to antiestrogens. Another control reporter, in which the tk promoter was regulated by a classical ERE (ERE-tk FIG. 2C) was also activated by estrogen, but not by antiestrogens.

The subject of assay [4] is ER at classical ERE, Ishikawa cells. Kind of assay: ERE-coll60CAT reporter in Ishikawa cells. It is filed as cell-based.
Text: Left panel, coll73-CAT response with endogenous ER contrasted with the response of an ERE regulated reporter, ERE-coll60CAT. […] Averages of three individual experiments are shown. […] A single representative experiment with triplicate hormone treatments is shown.
To further explore this phenomenon, and to test whether similar hormone effects could be detected at physiological levels of ER, the expression of the collagenase promoter in cells that express endogenous ER was examined.

For `C[C@]12CC[C@@H]3c4ccc(O)cc4CC[C@H]3[C@@H]1CC[C@@H]2O` [estradiol, 17β-estradiol], the “Coll73 Luciferase Activity” value worked out at 2.5 in assay [1] (CEF (fibroblast), no hormone, saturating hormone); 3.3 in assay [1] (CHO (ovary), no hormone, saturating hormone); 2.2 in assay [1] (CV-1 (kidney), no hormone, saturating hormone); 1.4 in assay [1] (F9 (teratocarcinoma), no hormone, unliganded ER gave 3.2); 3.4 in assay [1] (HELA (cervix), no hormone = 1, ICI 1 μM, tamoxifen 5 μM, estradiol 100 nM); 4.3 in assay [1] (HEP G2 (liver), no hormone, saturating hormone). For the same compound, the “Coll73 Luciferase Activity” value in assay [1] (MDA453 (breast), no hormone, saturating hormone) is 8.4; in assay [1] (NIH 3T3 (fibroblast), no hormone, saturating hormone) it was 3.3; in assay [1] (SHM (myometrium), no hormone, saturating hormone), 2.0; in assay [1] (SY5Y (neuroblastoma), no hormone, saturating hormone), 2.1. The “estrogen response of Δcoll60 (AP1 site removed)” value in assay [2] is “no estrogen response”. For the same compound, in assay [2] (100 nM estradiol, FIG. 1A), the “stimulation of Δcoll73 (CAT)” value is reported as “ten fold”. Besides, the “estrogen response of EREΔcoll60 (classical ERE substituted for AP1 site)” value in assay [3] (ERC1 cells) was “restored estrogen response”. The “activation of ERE-tk” value in assay [3] (HeLa cells, FIG. 2C) is “activated”. Further, the “expression of ERE-coll60” value in assay [4] was “tenfold”.
